Data on 15 molecules can be found in US20250352587A1, “PROBIOTIC AND USE THEREOF” (priority 2023, published 2025).

≈ marks a conversion by molar mass, not a printed value. Where two headings read alike, the source gives them in different places.

One test deals with Lferm-1. Kind of test: Antibiotic susceptibility test, broth dilution MIC. Type of test: cell-based, Limosilactobacillus fermentum. The following applies: for MIC: Limosilactobacillus fermentum, read-out: MIC against Lferm-1. As to the method:
(§1) According to the requirements for antibiotic susceptibility tests of anaerobic bacteria in “Technical specification on antimicrobial susceptibility tests” (Standard No. WS/T 639-2018) of the People's Republic of China Health Industry Standard, the susceptibility of the strains to antibiotics was determined by a broth dilution method, and the MIC values were recorded.
(§2) 0.1 mL of the prepared 5 bacterial suspensions were sequentially pipetted into 96-well plates containing equal volumes of prepared antibacterial drugs, such that the final concentration of the inoculated bacteria was 5×10^5 CFU/mL, and the drug concentrations were 256 μg/mL, 128 μg/mL, 64 μg/mL, 32 μg/mL, 16 μg/mL, 8 μg/mL, 4 μg/mL, 2 μg/mL, 1 μg/mL, 0.5 μg/mL, 0.25 μg/mL, and 0.125 μg/mL, respectively. Incubation: The above 96-well plates were anaerobically incubated in an incubator at 37° C. for 46-48 h.
(In general: Broth dilution looks for growth in wells or tubes with falling amounts of substance.)

Another test has as its system Eaviu-1. The test can be described thus: Antibiotic susceptibility test, broth dilution MIC. Type of test: cell-based, Enterococcus avium. The following applies: for MIC: Enterococcus avium, read-out: MIC against Eaviu-1. As to the method:
as §1, §2

The test system of another test is Lsali-1. Kind of test: Antibiotic susceptibility test, broth dilution MIC. It counts as cell-based, Lactobacillus salivarius. The following applies: anaerobic, 37° C., 46-48 h; for MIC: Ligilactobacillus salivarius, read-out: MIC against Lsali-1. The procedure:
as §1, §2

In another test the test system is Bbifi-1. The test can be described thus: Antibiotic susceptibility test, broth dilution MIC. Type of test: cell-based, Bifidobacterium bifidum. The following applies: for MIC: Bifidobacterium bifidum, read-out: MIC against Bbifi-1. The procedure:
as §1, §2

A further test concerns Pdist-1. The test can be described thus: Antibiotic susceptibility test, broth dilution MIC. The following applies: for MIC: Parabacteroides distasonis, read-out: MIC against Pdist-1. Type of test: cell-based, Parabacteroides distasonis. As to the method:
as §1, §2

Another test has as its system colon injury. The test can be described thus: Colon histopathology (HE staining) in mice with 5-FU-induced diarrhea. It counts as in vivo. The following applies: panels 1A and 2A in FIG. 13. The procedure: After the animal experiment, the middle colon of the mice was collected and fixed in 4% paraformaldehyde for 24 h. The fixed colon tissues were sequentially dehydrated, transparentized, waxed, and embedded. The embedded paraffin blocks of colon tissues were sectioned at a thickness of 5 μm, followed by spreading and baking, and the dried sections were subjected to conventional HE staining. The pathological changes were observed under an optical microscope. Pathological scoring was performed according to Table 6 below, and the total pathological scores (the sum of the scores of all indices) were calculated.

[1] abbreviates: broth dilution, anaerobic, 37° C., 46-48 h.

Regarding `O=C(N[C@H](CO)[C@H](O)c1ccc([N+](=O)[O-])cc1)C(Cl)Cl` [Chloramphenicol], the MIC (in general, the least concentration at which growth counts as inhibited) with Lferm-1 (setting [1]) was determined as 0.125 µg/mL (≈ 0.387 µM); in the test with Eaviu-1 (setting [1]) it was 128 µg/mL (≈ 396 µM); with Lsali-1, 256 µg/mL (≈ 792 µM); in the test with Bbifi-1 (setting [1]), 8 µg/mL (≈ 24.8 µM).
As for `NC[C@H]1O[C@H](O[C@H]2[C@H](O)[C@@H](O[C@H]3O[C@H](CO)[C@@H](O)[C@H](N)[C@H]3O)[C@H](N)C[C@@H]2N)[C@H](O)[C@@H](O)[C@@H]1O` [Kanamycin], the minimum inhibitory concentration (MIC) with Lsali-1 worked out at 256 µg/mL (≈ 528 µM).
On to `CC[C@H]1OC(=O)[C@H](C)[C@@H](O[C@H]2C[C@@](C)(OC)[C@@H](O)[C@H](C)O2)[C@H](C)[C@@H](O[C@@H]2O[C@H](C)C[C@H](N(C)C)[C@H]2O)[C@](C)(O)C[C@@H](C)C(=O)[C@H](C)[C@@H](O)[C@]1(C)O` [Erythromycin], for which the MIC in the test on Lferm-1 (setting [1]) is below 0.125 µg/mL; in the test with Eaviu-1 (setting [1]) it was 0.25 µg/mL (≈ 0.341 µM); in the test on Lsali-1, 0.125 µg/mL (≈ 0.17 µM); in the test with Bbifi-1 (setting [1]) it was 0.125 µg/mL (≈ 0.17 µM); with Pdist-1 (setting [1]) it was 32 µg/mL (≈ 43.6 µM).
Regarding Penicillin, the “MIC against Pdist-1” value against Pdist-1 (setting [1]) was 8 µg/mL.
With `CO[C@H]1/C=C/O[C@@]2(C)Oc3c(C)c(O)c4c(O)c(c(/C=N/N5CCN(C)CC5)c(O)c4c3C2=O)NC(=O)/C(C)=C\C=C\[C@H](C)[C@H](O)[C@@H](C)[C@@H](O)[C@@H](C)[C@H](OC(C)=O)[C@@H]1C` [Rifampicin], the MIC in the test with Pdist-1 (setting [1]) is below 0.125 µg/mL.
As to Gentamicin, the “MIC against Lferm-1” value in the test with Lferm-1 (setting [1]) was 0.125 µg/mL. In addition, the “MIC against Eaviu-1” value against Eaviu-1 (setting [1]) worked out at 8 µg/mL. For the same molecule, in the test with Lsali-1, the “MIC against Lsali-1” value was found to be 16 µg/mL. Further, in the test on Bbifi-1 (setting [1]), the “MIC against Bbifi-1” value is 8 µg/mL. In addition, the “MIC against Pdist-1” value in the test with Pdist-1 (setting [1]) is below 0.125 µg/mL.
Take `[H]/N=C(/N)N[C@H]1[C@H](O)[C@@H](O)[C@H](O[C@@H]2O[C@@H](C)[C@](O)(C=O)[C@H]2O[C@@H]2O[C@@H](CO)[C@H](O)[C@@H](O)[C@@H]2NC)[C@@H](N/C(N)=N\[H])[C@@H]1O` [Streptomycin]: the minimal inhibitory concentration (MIC) in the test on Lferm-1 (setting [1]) is 0.125 µg/mL (≈ 0.215 µM); in the test with Eaviu-1 (setting [1]), 128 µg/mL (≈ 220 µM); in the test with Lsali-1 it was 128 µg/mL (≈ 220 µM); in the test on Bbifi-1 (setting [1]), 128 µg/mL (≈ 220 µM); with Pdist-1 (setting [1]), below 0.125 µg/mL.
As to `CN(C)[C@@H]1C(O)=C(C(N)=O)C(=O)[C@@]2(O)C(O)=C3C(=O)c4c(O)cccc4[C@@](C)(O)[C@H]3C[C@@H]12` [Tetracycline], the MIC is below 0.125 µg/mL in the test on Lferm-1 (setting [1]); 0.5 µg/mL (≈ 1.13 µM) in the test on Eaviu-1 (setting [1]); 0.5 µg/mL (≈ 1.13 µM) in the test with Lsali-1; 0.125 µg/mL (≈ 0.281 µM) in the test with Bbifi-1 (setting [1]); 8 µg/mL (≈ 18 µM) in the test with Pdist-1 (setting [1]).
For `C[C@H]1COc2c(N3CCN(C)CC3)c(F)cc3c(=O)c(C(=O)O)cn1c23` [Levofloxacin], the minimal inhibitory concentration (MIC) in the test with Pdist-1 (setting [1]) came to 8 µg/mL (≈ 22.1 µM).
In the case of `CN(C)C(=O)C(CCN1CCC(O)(c2ccc(Cl)cc2)CC1)(c1ccccc1)c1ccccc1` [loperamide], the “colon histopathological observation (HE staining)” value in the test on colon injury was “the colon structure was relatively intact, mucosal epithelial cells showed no significant necrosis, the number of goblet cells was significantly increased, and only a small amount of lymphocyte infiltration was observed in the lamina propria”.
Regarding `CC1(C)S[C@@H]2[C@H](NC(=O)[C@H](N)c3ccccc3)C(=O)N2[C@H]1C(=O)O` [Ampicillin], the MIC with Lferm-1 (setting [1]) was 0.5 µg/mL (≈ 1.43 µM); in the test with Eaviu-1 (setting [1]), 4 µg/mL (≈ 11.4 µM); with Lsali-1 it was 4 µg/mL (≈ 11.4 µM); in the test on Bbifi-1 (setting [1]) it was 0.25 µg/mL (≈ 0.715 µM); in the test on Pdist-1 (setting [1]), 8 µg/mL (≈ 22.9 µM).
Consider `CCC[C@@H]1C[C@@H](C(=O)N[C@@H]([C@H]2O[C@H](SC)[C@H](O)[C@@H](O)[C@H]2O)[C@H](C)Cl)N(C)C1` [Clindamycin], for which the minimum inhibitory concentration (MIC) in the test with Lferm-1 (setting [1]) is below 0.125 µg/mL; in the test on Eaviu-1 (setting [1]), 4 µg/mL (≈ 9.41 µM); in the test on Lsali-1 it was 8 µg/mL (≈ 18.8 µM); with Bbifi-1 (setting [1]), 1 µg/mL (≈ 2.35 µM); in the test on Pdist-1 (setting [1]), 16 µg/mL (≈ 37.6 µM).
Consider `C[C@@H](O)[C@H]1C(=O)N2C(C(=O)O)=C(SCCN=CN)C[C@H]12` [Imipenem], for which the MIC with Pdist-1 (setting [1]) turned out to be 16 µg/mL (≈ 53.4 µM).
On the same count and under the same terms, the figure for `CO/N=C(\C(=O)N[C@@H]1C(=O)N2C(C(=O)O)=C(CSc3nc(=O)c(=O)[nH]n3C)CS[C@H]12)c1csc(N)n1` [Ceftriaxone] is 16 µg/mL (≈ 28.9 µM).
Consider `CN[C@H](CC(C)C)C(=O)N[C@H]1C(=O)N[C@@H](CC(N)=O)C(=O)N[C@H]2C(=O)N[C@H]3C(=O)N[C@H](C(=O)N[C@H](C(=O)O)c4cc(O)cc(O)c4-c4cc3ccc4O)[C@H](O)c3ccc(c(Cl)c3)Oc3cc2cc(c3O[C@@H]2O[C@H](CO)[C@@H](O)[C@H](O)[C@H]2O[C@H]2C[C@](C)(N)[C@H](O)[C@H](C)O2)Oc2ccc(cc2Cl)[C@H]1O` [Vancomycin], for which the minimum inhibitory concentration (MIC) was determined as 0.125 µg/mL (≈ 0.0863 µM) in the test on Lferm-1, 2 µg/mL (≈ 1.38 µM) in the test on Eaviu-1, 1 µg/mL (≈ 0.69 µM) with Bbifi-1 and 8 µg/mL (≈ 5.52 µM) with Pdist-1.
